# In US20220168328A1, “METHODS AND COMPOSITIONS FOR TREATING EUKARYOTIC INFECTIONS VIA ALTERING AGGREGATION DYNAMICS OF RAPTOR/KOG1” (ARIZONA BOARD OF REGENTS ON BEHALF OF THE UNIVERSITY OF …, priority 2014, published 2022):
# Legend:
# [1] = test system: ringworm; experiment: Patient with ringworm treated with topical AICAR (Example 2); assay type: in vivo, human; conditions: child, 3 g AICAR
# Description: A child (height of 165 cm, weight of 55 kg) presents to their primary care physician with a red and itchy rash on their forearm. The rash is in a circular pattern. The physician diagnoses the patient with ringworm. The physician administers a dose of a topical pharmaceutical containing 3 g of AICAR, an agent that activates TORC1 aggregate formation.
# [2] = test system: Kog1; experiment: Kog1 foci (Kog1 bodies) resolution in WT cells after glucose starvation; assay type: cell-based, budding yeast; conditions: cycloheximide (CHX) alone, without glucose repletion
# [3] = test system: esophageal candidiasis; experiment: Patient with esophageal candidiasis treated with oral phenformin (Example 1); assay type: in vivo, human; conditions: person, 200 mg phenformin
# Experimental: The physician notes the presence of white plaques on the patient's tongue. The physician diagnoses esophageal candidiasis. The physician administers an oral pharmaceutical containing 200 mg of phenformin, an agent that activates TORC1 aggregate formation.
# [4] = test system: TORC1; experiment: DNA microarray measurement of TORC1 pathway output (gene expression) with and without rapamycin; assay type: cell-based, S. cerevisiae; conditions: salt stress, 0.4M KCl; hog1Δ versus wild-type strain
# Experimental: Previous studies of TOR pathway signaling in stress have been limited to measuring phosphorylation of a single substrate, Sch9. As a result it was not clear whether stress signals inhibit TORC1 activity directly or simply act on one or two TORC1 targets proteins. To help distinguish between these possibilities, the complete output of TORC1 pathway in osmotic stress was measured using DNA microarrays. To do this, the cellular response was monitored with and without the potent TORC1 inhibitor rapamycin in 0.4M KCl and three control conditions: amino acid starvation, nitrogen starvation and log growth conditions.
# In osmotic stress, Hog1/p38, the terminal kinase in the HOG pathway, is known to regulate many aspects of the stress response including transcription, chromatin remodeling, cell cycle check-points, and ion and glycerol channel regulation. […]
# (a) DNA microarray data comparing the gene expression program activated by KCl stress and the TORC1 inhibitor rapamycin. […] A phosphorylation-induced shift in the electrophoretic mobility of Sch9-3HA was measured by performing a western blot to a SDS-PAGE gel loaded with extract from cells collected before and after treatment with 0.4M KCl, using an anti-HA antibody. […] The experiment described in (b) was carried out in triplicate in wild-type and hog1A strains and the fraction of protein in the phosphorylated state was quantified using densitometry. […]
smiles,measurement,setting,value
NC(=O)c1ncn([C@@H]2O[C@H](CO)[C@@H](O)[C@H]2O)c1N [AICAR],outcome by four days of treatment,[1],the rash is gone
C[C@@H]1C[C@@H]([C@H](O)CC2CC(=O)NC(=O)C2)C(=O)[C@@H](C)C1 [cycloheximide],disaggregation of Kog1,[2],does not trigger disaggregation of Kog1
[H]/N=C(/N)N/C(=N/[H])NCCc1ccccc1 [phenformin],signs of improvement after one day of treatment,[3]; one day,absence of white plaques on the tongue and no difficulty swallowing
same,outcome by two days of treatment,[3]; two days,sore throat is gone
CO[C@H]1C[C@@H]2CC[C@@H](C)[C@@](O)(O2)C(=O)C(=O)N2CCCC[C@H]2C(=O)O[C@H]([C@H](C)C[C@@H]2CC[C@@H](O)[C@H](OC)C2)CC(=O)[C@H](C)/C=C(\C)[C@@H](O)[C@@H](OC)C(=O)[C@H](C)C[C@H](C)/C=C/C=C/C=C/1C [rapamycin],more repression by rapamycin in hog1Δ than wt,[4],4 fold
